In paper PMC6510822, “Identification of anticancer OATP2B1 substrates by an in vitro triple-fluorescence-based cytotoxicity screen” (Archives of Toxicology, 2019):
Read-outs that look alike come from different tables or passages of the source. Marks after values point to notes of the source that are not given here.

What was measured:
OATP2B1 [1] = target: T1, OATP2B1 (Homo sapiens, UniProt O94956); test: Inhibition of OATP2B1-mediated Cascade Blue uptake (microplate-based uptake assay, A431-2B1 cells)
T1 sequence (O94956 1-709): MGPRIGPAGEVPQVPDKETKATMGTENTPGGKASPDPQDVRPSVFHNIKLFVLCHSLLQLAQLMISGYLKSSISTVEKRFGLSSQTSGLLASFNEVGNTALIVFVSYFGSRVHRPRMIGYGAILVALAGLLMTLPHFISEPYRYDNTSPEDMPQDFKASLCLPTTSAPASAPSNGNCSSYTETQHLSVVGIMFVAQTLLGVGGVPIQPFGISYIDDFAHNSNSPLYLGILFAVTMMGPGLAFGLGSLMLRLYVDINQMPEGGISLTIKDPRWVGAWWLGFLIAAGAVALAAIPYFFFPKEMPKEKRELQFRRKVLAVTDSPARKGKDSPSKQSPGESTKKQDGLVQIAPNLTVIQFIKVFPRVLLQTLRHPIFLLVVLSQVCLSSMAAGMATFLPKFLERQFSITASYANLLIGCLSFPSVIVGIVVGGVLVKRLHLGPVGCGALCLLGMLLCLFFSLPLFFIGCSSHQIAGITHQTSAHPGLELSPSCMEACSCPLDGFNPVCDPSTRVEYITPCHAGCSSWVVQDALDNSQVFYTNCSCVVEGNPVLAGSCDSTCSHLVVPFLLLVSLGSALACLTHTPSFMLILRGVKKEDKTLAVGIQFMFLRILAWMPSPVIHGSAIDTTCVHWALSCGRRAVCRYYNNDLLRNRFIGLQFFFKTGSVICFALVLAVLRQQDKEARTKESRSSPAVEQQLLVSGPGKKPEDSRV
Experimental: OATP-expressing A431 cells were seeded (7 × 10^4 cells in 200 µl final volume/well) onto 96-well plates and cultured for 16–24 h at 37 °C, 5% CO2. After reaching confluence, the supernatant was removed and the cells were washed three-times with 200 µl of phosphate-buffered saline (PBS). The cells were preincubated in the presence of the compounds for 5 min at 37 °C. The amount of solvent was kept below 0.5% throughout the study to avoid interference with the fluorescence of the dyes. The reaction was started with the addition of 50 µl Cascade Blue fluorescent dye (10 µM final concentration in a final volume of 100 µl) and the plate was incubated at 37 °C for 30 min (Patik et al. [2018]). The reaction was stopped by the addition of 200 µl ice-cold PBS. The supernatant was rapidly removed, and the cells were washed three-times with 200 µl ice-cold PBS. Finally, 200 µl PBS was added to the cells and fluorescence was measured at room temperature using an EnSpire fluorescent plate reader (Perkin Elmer) at wavelengths 401ex/419em nm.

A431 cells = test: Fluorescence-based cytotoxicity assay, parental A431 eGFP
Experimental: (§1) After the transduction, cell lines were tested by flow cytometry and were sorted based on transporter expression/function, and in the case of the OATP2B1-expressing cell line, on CD4 protein expression. Parental, SLCO2B1, ABCG2 and ABCB1 overexpressing cell lines were transduced with the fluorescent protein expressing lentiviral supernatants produced with pRRL-EF1-mCherry, -mOrange or -eGFP expression plasmid in a second round of transduction. Mes-Sa/Dx5-eGFP cells were repeatedly cultured in 500 nM doxorubicin to ensure homogenous expression of Pgp. […] Functional expression of ABCB1 and ABCG2 was regularly checked with cytotoxicity assays using mitoxantrone in the absence or presence of tariquidar.
(§2) All experiments were performed using a robotic pipetting workstation (Hamilton Robotics STAR Let). Cells were seeded at a final cell density of 1875 cells per well in 384-well plates in the triple co-culture (625 cells from each lines) and at 2500 cells per well in the A431 control and A431-2B1 co-culture (1250 cells from both) systems. Co-cultured cells were incubated for 24 h at 37 °C and 5% CO2 under humidified atmosphere prior to the addition of drugs. […] Data were exported to a custom-made program for determining growth inhibition curves for each cell line.
(§3) In the primary screening, IC50 was estimated by the intercept of the linear regression fitted on nearest values. In the confirmatory screening, IC50 values were obtained by sigmoidal curve fitting using the GraphPad Prism software. […] The Resistance Ratio (RR) was calculated by dividing the IC50 values measured against the multidrug resistant, transporter-expressing derivative by the cytotoxicity measured in the parental cell line; the Selectivity Ratio (SR) is the inverse of RR.

[2] = test system: A431-2B1 cells (OATP2B1 expressing); test: Fluorescence-based cytotoxicity assay, OATP2B1-expressing A431-2B1 mCh; details: for IC50: 9 concentration points, at least 3 replicates
Experimental: as §1, §2, §3

OATP2B1 [3] = test: as above; details: human
Experimental: as §1, §2, §3

[4] = test system: Mes-Sa-B1 cells (Pgp overexpressing); test: Fluorescence-based cytotoxicity assay, Mes-Sa-B1 mOr; details: for RR (Mes-Sa-B1): resistance ratio = IC50 Mes-Sa-B1 / IC50 parental Mes-Sa
Experimental: as §1, §2, §3

Mes-Sa/Dx5 cells = test: Fluorescence-based cytotoxicity assay, Mes-Sa/Dx5 eGFP; details: for RR (Dx5): resistance ratio = IC50 Mes-Sa/Dx5 / IC50 parental Mes-Sa
Experimental: as §1, §2, §3

[5] = test system: A431-G2 cells (ABCG2 expressing); test: Fluorescence-based cytotoxicity assay, ABCG2-expressing A431-G2 mOr
Experimental: as §1, §2, §3

[6] = test system: A431-B1 cells (ABCB1/P-glycoprotein expressing); test: Fluorescence-based cytotoxicity assay, ABCB1-expressing A431-B1 mCh; details: resistance ratio = IC50 A431B1 / IC50 parental A431; triple co-culture screen
Experimental: All cell lines were cultured at 37 °C, 5% CO2, in Dulbecco’s Modified Eagle’s Medium (DMEM, SigmaAldrich, 52100047), supplemented with 10% FBS, 2 mM L-glutamine and 100 units/mL penicillin and 100 µg/mL streptomycin (ThermoFisher).
as §2
In the primary screening, IC50 was estimated by the intercept of the linear regression fitted on nearest values. In the confirmatory screening, IC50 values were obtained by sigmoidal curve fitting using the GraphPad Prism software. […] The Resistance Ratio (RR) was calculated by dividing the IC50 values measured against the multidrug resistant, transporter-expressing derivative by the cytotoxicity measured in the parental cell line; the Selectivity Ratio (SR) is the inverse of RR. Differences were considered to be biologically relevant at RR > 3 or SR > 3.

[7] = IC50 A431 eGFP / IC50 A4312B1 mCh
[8] = primary screen, co-culture, Fig. 4 inset
[9] = selectivity ratio = IC50 parental Mes-Sa / IC50 Mes-Sa-B1, triple co-culture screen
[10] = selectivity ratio = IC50 parental Mes-Sa / IC50 Mes-Sa/Dx5, triple co-culture screen

Work on `CN(Cc1cnc2nc(N)nc(N)c2n1)c1ccc(C(=O)N[C@@H](CCC(=O)O)C(=O)O)cc1` [NSC-740, Methotrexate] yielded an IC50 (OATP2B1 [1]) of 265000 ± 31400 nM, an IC50 (A431 cells; Homo sapiens, A-431, read-out: IC50 (µM) A431 eGFP, co-culture) of 0.38 µM and an IC50 (A431 cells; Homo sapiens, A-431, read-out: IC50 (µM) A431 eGFP, monoculture) of 0.43 µM. The “SR, co-culture” value ([2]; IC50 A431 eGFP / IC50 A4312B1 mCh, co-culture) was 11.78^**, the “SR, monoculture” value [2, 7] was 3.59^** and the “SR (A431-2B1 vs parental A431), screening of DTP Oncology Set IV” value [2, 8] was 9.00. The IC50 at […] (OATP2B1 [3]) was 30 nM and the IC50 at […] (OATP2B1 [3]; A431-2B1 mCherry cells (OATP2B1-expressing), monoculture) was 120 nM.

With `Nc1nc2nc[nH]c2c(=S)[nH]1` [NSC-752, Thioguanine] the “SR (Mes-Sa-B1)” value [4, 9] was 0.41 and the “SR (Mes-Sa/DX5)” value (Mes-Sa/Dx5 cells; [10]) was 6.93.

For `S=c1[nH]cnc2nc[nH]c12` [NSC-755, Mercaptopurine], the “Effect of ABCG2 expression on toxicity (A431-G2 vs parental A431)” value ([5]; triple co-culture, result in words) was “conferred resistance”, the “SR (Mes-Sa-B1)” value [4, 9] was 0.39 and the “SR (Mes-Sa/DX5)” value (Mes-Sa/Dx5 cells; [10]) was 3.87.

For `C1CN1c1nc(N2CC2)nc(N2CC2)n1` [NSC-9706, Triethylenemelamine], the “SR (Mes-Sa/DX5)” value (Mes-Sa/Dx5 cells) was 26.62.

With `O=c1[nH]c(=O)n([C@H]2C[C@H](O)[C@@H](CO)O2)cc1F` [NSC-27640, Floxuridin] the “SR (A431-2B1 vs parental A431), screening of DTP Oncology Set IV” value [2, 8] was 12.31.

With `CC[C@]1(O)C[C@@H]2CN(CCc3c([nH]c4ccccc34)[C@@](C(=O)OC)(c3cc4c(cc3OC)N(C)[C@H]3[C@@](O)(C(=O)OC)[C@H](OC(C)=O)[C@]5(CC)C=CCN6CC[C@]43[C@@H]65)C2)C1` [NSC-49842, Vinblastine] the “RR (A431B1)” value [6] was 244.4, the “RR (Mes-Sa-B1)” value ([4]; triple co-culture screen) was 15.00 and the “RR (Dx5)” value (Mes-Sa/Dx5 cells; triple co-culture screen) was 11.00.

In the case of `Nc1ccn([C@@H]2O[C@H](CO)[C@@H](O)[C@@H]2O)c(=O)n1` [NSC-63878, Cytarabine], the “SR (A431-2B1 vs parental A431), screening of DTP Oncology Set IV” value [2] is reported as > 18.12.

For `CC[C@]1(O)C[C@H]2CN(CCc3c([nH]c4ccccc34)[C@@](C(=O)OC)(c3cc4c(cc3OC)N(C=O)[C@H]3[C@@](O)(C(=O)OC)[C@H](OC(C)=O)[C@]5(CC)C=CCN6CC[C@]43[C@@H]65)C2)C1` [NSC-67574, Vincristine], the “RR (A431B1)” value [6] was 56.8, the “RR (Mes-Sa-B1)” value ([4]; triple co-culture screen) was 38.00 and the “RR (Dx5)” value (Mes-Sa/Dx5 cells; triple co-culture screen) was 36.00.

In the case of `Cc1c(N)nc([C@H](CC(N)=O)NC[C@H](N)C(N)=O)nc1C(=O)N[C@H](C(=O)N[C@H](C)[C@@H](O)[C@H](C)C(=O)N[C@H](C(=O)NCCc1nc(-c2nc(C(=O)NCCC[S+](C)C)cs2)cs1)[C@@H](C)O)[C@@H](OC1OC(CO)C(O)C(O)C1OC1OC(CO)C(O)C(OC(N)=O)C1O)c1cnc[nH]1` (stereo partly drawn) [NSC-125066, Bleomycin], the IC50 (OATP2B1 [1]; read-out: IC50, inhibition of OATP2B1-mediated Cascade Blue (CB) uptake, CB 10 µM, 30 min, average ± SD) is reported as 64200 ± 6100 nM, the IC50 (A431 cells; read-out: IC50 (µM) A431 eGFP, co-culture, co-culture with A431-2B1 mCh, 9 concentration points, at least 3 replicates) is reported as 7.47 µM and the IC50 (A431 cells; read-out: IC50 (µM) A431 eGFP, monoculture, 9 concentration points, at least 3 replicates) is reported as 16.3 µM. For the same compound, the IC50 ([2]; read-out: IC50 (µM) A4312B1 mCh, co-culture, co-culture with A431 eGFP) was 0.83 µM, the IC50 ([2]; read-out: IC50 (µM) A4312B1 mCh, monoculture) was 1.5 µM and the “SR (Mes-Sa/DX5)” value (Mes-Sa/Dx5 cells; [10]) was 57.8.

In the case of `CC(=O)O[C@H]1C(=O)[C@@]2(C)[C@H]([C@H](OC(=O)c3ccccc3)[C@]3(O)C[C@H](OC(=O)[C@H](O)[C@@H](NC(=O)c4ccccc4)c4ccccc4)C(C)=C1C3(C)C)[C@]1(OC(C)=O)CO[C@@H]1C[C@@H]2O` [NSC-125973, Taxol], the “Effect of OATP2B1 expression on toxicity (A431-2B1 vs A431 eGFP)” value ([2]; co-culture screen, result in words) is reported as “not transported by OATP2B1”, the “RR (A431B1)” value [6] is reported as 50.91 and the “RR (Mes-Sa-B1)” value ([4]; triple co-culture screen) is reported as 593.3. The “RR (Dx5)” value (Mes-Sa/Dx5 cells; triple co-culture screen) was 497.67.

`CC/C(=C(\c1ccccc1)c1ccc(OCCN(C)C)cc1)c1ccccc1` [NSC-180973, Tamoxifen] was tested, and the IC50 (OATP2B1 [1]) was 11000 ± 700 nM, the “SR, monoculture” value [2, 7] was 0.9 and the “SR (A431-2B1 vs parental A431), screening of DTP Oncology Set IV” value [2, 8] was 3.49.

In the case of `Nc1nc(Cl)nc2c1ncn2[C@@H]1O[C@H](CO)[C@@H](O)[C@@H]1F` [NSC-606869, Clofarabine], the “Effect of ABCG2 expression on toxicity (A431-G2 vs parental A431)” value [5] is reported as “conferred resistance”, the “SR (Mes-Sa-B1)” value [4] is reported as 0.91 and the “SR (Mes-Sa/DX5)” value (Mes-Sa/Dx5 cells; [10]) is reported as 3.44.

`CCC1=C[C@@H]2CN(C1)Cc1c([nH]c3ccccc13)[C@@](C(=O)OC)(c1cc3c(cc1OC)N(C)[C@H]1[C@@](O)(C(=O)OC)[C@H](OC(C)=O)[C@]4(CC)C=CCN5CC[C@]31[C@@H]54)C2` [NSC-608210, Vinorelbine] was tested, and the “RR (A431B1)” value [6] was 232.00, the “RR (Mes-Sa-B1)” value ([4]; triple co-culture screen) was 725.00 and the “RR (Dx5)” value (Mes-Sa/Dx5 cells; triple co-culture screen) was 861.00.

For `Nc1ccn([C@@H]2O[C@H](CO)[C@@H](O)C2(F)F)c(=O)n1` [NSC-613327, Gemcitabine], the “SR (A431-2B1 vs parental A431), screening of DTP Oncology Set IV” value [2, 8] was 16.5.
